Measured values from US9289400B2, “D3 dopamine receptor agonists to treat dyskinesia in parkinson's disease” (priority 2010, dated 2016).
“Also recorded” adds a separate entry of the source. Like-named read-outs stand apart in the source and are kept apart here.

How the values were obtained:
[1] = molecular target: T1, D3 dopamine receptor (Homo sapiens (Human), UniProt P35462); assay: GIRK channel activation, whole cell voltage clamp, AtT-20 cells stably expressing D3; format: cell-based; conditions: D2/D3 antagonist eticlopride (100 nM)
Protocol: The activation of the GIRK channels was measured electrophysiologically using whole cell voltage clamp recording (Kuzhikandathil et al., 2004, Mol. Cell. Neurosci. 26:144-155). […]. The adenylyl cyclase inhibition was determined using a commercially available ELISA assay (Westrich & Kuzhikandathil, 2007, Biochim. Biophys. Acta-Mol. Cell. Res. 1773:1747-1758).
. In the initial screen, the ability of 300 nM lead compound to activate G-protein coupled inward rectifier potassium (GIRK) channels (FIG. 1) is measured using whole cell voltage clamp recording. The protocol has been previously used for performing whole cell voltage clamp and measuring agonist-induced GIRK response. […]. The EC50 values for each receptor subtype is determined by fitting the data points using the Hill equation.
AtT-20 mouse pituitary cells were grown in Ham's F10 medium with 5% FBS, 10% heat-inactivated horse serum, 2 mM glutamine and 50 μg/ml gentamicin (Invitrogen, Carlsbad, Calif.). AtT-20 cells stabling expressing the human D2S, D2L, D3, and D4.2 and receptor were maintained in the above F10 culture media supplemented with 500 μg/ml G418 (Invitrogen). For electrophysiological characterization, cells were plated onto glass coverslips coated with 40 μg/ml poly L-lysine (Sigma-Aldrich). […]. Physiol. 115:697-706; Kuzhikandathil et al., 1998, Mol. Cell. Neurosci. 12:390-402; Kuzhikandathil & Bartoszyk, 2006, Neuropharm. 51:873-884; Westrich & Kuzhikandathil, 2007, Biochim. Biophys. Acta-MCR 1773:1747-1758; Kuzhikandathil et al., 2004, Mol. Cell. Neurosci. 26:144-155; Westrich et al., 2010, Biochem. Pharmacol. 79:897-907).
Agonist-activated currents were measured by the whole-cell patch clamp technique in voltage clamp and current clamp mode as described previously (Kuzhikandathil & Oxford, 2000, J. Gen. Physiol. 115:697-706; Kuzhikandathil et al., 1998, Mol. Cell. Neurosci. 12:390-402; Kuzhikandathil & Bartoszyk, 2006, Neuropharm. 51:873-884; Westrich & Kuzhikandathil, 2007, Biochim. Biophys. Acta-MCR 1773:1747-1758; Kuzhikandathil et al., 2004, Mol. Cell. Neurosci. 26:144-155; Westrich et al., 2010, Biochem. Pharmacol. 79:897-907). Drug solutions were delivered to cells via a multi-barreled micropipette array. The current responses were normalized to the cell capacitance, to account for variation in cell size.
To compare the functional effects of the new class of D3 receptor agonists, PBZI (Table 2) and ES609 (Table 3) were tested on AtT-20 cells stably expressing human D3, D2S, D2L or D4.2. […]. The EC50 values of PBZI and ES609 for inhibiting adenylyl cyclase and activating GIRK channels were in the range of 0.2 nM to 30 nM for D3 receptors. […]. […]
Target sequence in this assay (P35462 other isoform, or with tags, fused parts or gaps): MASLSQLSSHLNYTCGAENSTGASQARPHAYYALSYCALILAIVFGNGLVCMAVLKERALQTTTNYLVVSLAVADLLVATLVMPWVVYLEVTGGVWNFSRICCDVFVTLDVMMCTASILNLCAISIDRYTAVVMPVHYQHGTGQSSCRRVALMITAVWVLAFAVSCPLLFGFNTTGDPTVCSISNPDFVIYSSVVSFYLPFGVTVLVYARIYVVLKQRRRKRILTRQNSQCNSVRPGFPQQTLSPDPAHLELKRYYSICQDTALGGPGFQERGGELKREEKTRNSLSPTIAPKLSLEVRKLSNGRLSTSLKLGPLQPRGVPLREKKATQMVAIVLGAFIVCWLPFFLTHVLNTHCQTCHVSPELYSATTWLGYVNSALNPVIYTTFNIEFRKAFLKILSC

[2] = molecular target: T1, D3 dopamine receptor; assay: D3 receptor tolerance and SRT: GIRK response to repeated agonist application in AtT-20 cells; format: cell-based; conditions: AtT-20 cells expressing human D3, 100-300 nM agonist, repeated ~60 s applications
Protocol: To determine whether a compound abolishes the D3 receptor tolerance and SRT, the D3 receptor-activated GIRK response to two consecutive treatments of the lead compound is measured. […] Drug solutions were delivered to cells via a multi-barreled micropipette array. The current responses were normalized to the cell capacitance, to account for variation in cell size.
To identify agonists that might modulate D3 receptor tolerance and SRT properties, ten distinct agonists were screened for their ability to induce tolerance and SRT, using the D3 receptor-GIRK channel signaling pathway as an assay.
Target sequence in this assay (P35462 other isoform, or with tags, fused parts or gaps): as above

[3] = tested on: intrastriatal 6-OHDA lesioned rats; assay: Levodopa-induced dyskinesia (AIMs score) in intrastriatal 6-OHDA lesioned rats; format: in vivo, rat; conditions: PD128907 0.1 mg/kg sc; PBZI 17 mg/kg sc; hydrochloride
Protocol: In particular, rats in which unilateral intrastriatal lesion is induced by injection of 6-OHDA (7 μg) at three different sites in the ventrolateral striatum are used. The coordinates for the three injection sites are, in mm: injection site 1: AP: +1.0; ML: −3.0; DV: −5.0; injection site 2: AP: −0.1; ML: −3.7; DV: −5.0; injection site 3: AP: −1.2; ML: −4.5; DV: −5.0. Anterior-posterior (AP) and mediolateral (ML) coordinates are from bregma. The dorso-ventral (DV) coordinates are from dura. The toothbar location is 0.
Seven and half weeks after the lesion, chronic levodopa treatment (6 mg/kg, single dose per day given with 15 mg/kg benserazide) is initiated. Stepping test and AIMs scores are determined on day 1, 8, 10, 17 and 24 after the initiation of chronic levodopa treatment. […] AIMs are scored using a rating scale based on frequency and severity of the dyskinetic symptoms. It should be noted that the rank order of the various AIMs components in terms of frequency and severity in the rat model is: limb>orolingual=axial>>locomotor. This lesion model has been used to test the effect of PBZI on LID (Example 3).
FIG. 13A illustrates the effect of control, PD128907 (a tolerance inducing D2/D3 agonist) and PBZI (a non tolerance inducing D3/D3 agonist) on the total AIMs score (includes locomotor, axial, limb and orolingual) over time of a day 17 (chronic L-DOPA phase) lesioned animal.

[4] = molecular target: T1, D3 dopamine receptor; conditions: cited from earlier work
Target sequence in this assay (P35462 whole entry): as the sequence (P35462 other isoform, or with tags, fused parts or gaps) above, with S9G counted along it

[5] = molecular target: D2S (Homo sapiens (Human), UniProt P14416); conditions: Scheideler et al., 1997; cited from earlier work
[6] = molecular target: D4.2; conditions: Scheideler et al., 1997; cited from earlier work
[7] = tested on: Balb/c mice; assay: Locomotor activity (open field, TruScan) in Balb/c mice
Protocol: Therefore, three different doses of the lead compound are administered and their effects on locomotor activity are determined. The dosage is determined based on the functional EC50 values and binding affinity of the lead compound from the cell-based assays described above. The compound is administered to Balb/c mice and locomotor activity is monitored using the TruScan Automated Behavioral Monitoring system (Coulborn Instruments).
A total of 12 young adult, male Balb/c mice were obtained form Charles River, Inc. (Wilmington, Mass.), and housed in groups of four in standard cages. The animals were maintained on a 12 hour light/12 hour dark cycle and permitted ad lib access to food and water. Experiments were conducted during the animal's light phase. […] For PD128907, separate groups of Balb/c mice received subcutaneous injections of saline (n=4) or 0.05 or 0.4 mg/kg PD128907 (n=4, for each). Locomotion (‘distance traveled’) scores of drug-injected animals were collapsed across 10-min intervals and for comparison purposes were normalized to saline injected animals (FIG. 12A). The experiment was conducted on three separate occasions.

[8] = tested on: intrastriatal 6-OHDA lesioned rats; assay: Forelimb stepping test in intrastriatal 6-OHDA lesioned rats; conditions: levodopa 2, 4 and 6 mg/kg with benserazide
[9] = molecular target: D2S dopamine receptor (Homo sapiens (Human), UniProt P14416); assay: Tolerance and SRT at D2S dopamine receptors; format: cell-based
[10] = molecular target: T2, D2L dopamine receptor (Homo sapiens (Human), UniProt P14416); conditions: Kuzhikandathil & Bartoszyk, 2006; cited from earlier work
[11] = molecular target: T3, D4.2 dopamine receptor (Homo sapiens (Human), UniProt P21917, DEL265-296); conditions: Kuzhikandathil & Bartoszyk, 2006; cited from earlier work
[12] = molecular target: T2, D2L dopamine receptor; conditions: Kuzhikandathil & Bartoszyk, 2006; cited from earlier work; remark: listed apart in the source
[13] = molecular target: T3, D4.2 dopamine receptor; conditions: Kuzhikandathil & Bartoszyk, 2006; cited from earlier work; remark: listed apart in the source

T3 sequence (P21917 other isoform, or with tags, fused parts or gaps del 265-296): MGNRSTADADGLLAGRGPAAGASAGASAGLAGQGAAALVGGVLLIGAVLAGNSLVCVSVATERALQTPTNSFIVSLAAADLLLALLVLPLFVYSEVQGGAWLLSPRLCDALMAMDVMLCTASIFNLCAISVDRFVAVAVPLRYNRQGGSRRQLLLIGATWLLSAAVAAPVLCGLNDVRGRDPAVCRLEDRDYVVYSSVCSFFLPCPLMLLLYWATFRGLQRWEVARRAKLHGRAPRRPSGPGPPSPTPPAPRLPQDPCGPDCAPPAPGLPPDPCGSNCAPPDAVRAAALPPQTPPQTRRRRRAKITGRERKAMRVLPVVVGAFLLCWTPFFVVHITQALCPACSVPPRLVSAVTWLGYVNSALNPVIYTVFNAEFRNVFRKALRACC
T2 sequence (P14416 whole entry): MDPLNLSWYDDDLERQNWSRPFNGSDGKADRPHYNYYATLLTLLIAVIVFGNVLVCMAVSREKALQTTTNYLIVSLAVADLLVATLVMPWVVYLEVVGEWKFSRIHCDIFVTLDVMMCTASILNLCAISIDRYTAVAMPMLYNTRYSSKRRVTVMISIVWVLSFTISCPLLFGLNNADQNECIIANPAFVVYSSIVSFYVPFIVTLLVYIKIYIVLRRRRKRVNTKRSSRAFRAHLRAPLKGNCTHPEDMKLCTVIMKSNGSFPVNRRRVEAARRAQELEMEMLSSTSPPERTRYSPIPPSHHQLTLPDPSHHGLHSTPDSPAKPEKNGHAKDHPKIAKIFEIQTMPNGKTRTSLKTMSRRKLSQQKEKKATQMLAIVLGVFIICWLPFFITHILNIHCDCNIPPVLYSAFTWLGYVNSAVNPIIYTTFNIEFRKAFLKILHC
Chain of D2S dopamine receptor (P14416 other isoform, or with tags, fused parts or gaps): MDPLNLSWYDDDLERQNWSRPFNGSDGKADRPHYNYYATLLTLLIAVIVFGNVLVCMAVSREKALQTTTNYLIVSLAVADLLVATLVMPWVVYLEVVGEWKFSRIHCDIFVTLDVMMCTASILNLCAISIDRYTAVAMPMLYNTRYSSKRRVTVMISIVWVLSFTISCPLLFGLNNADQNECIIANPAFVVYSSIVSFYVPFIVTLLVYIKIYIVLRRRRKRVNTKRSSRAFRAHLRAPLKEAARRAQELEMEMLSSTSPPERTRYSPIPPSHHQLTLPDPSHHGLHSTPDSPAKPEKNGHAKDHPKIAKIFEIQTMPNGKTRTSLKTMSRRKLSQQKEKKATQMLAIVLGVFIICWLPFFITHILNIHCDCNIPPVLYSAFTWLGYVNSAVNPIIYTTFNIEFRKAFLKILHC
Chain of D2S (P14416 other isoform, or with tags, fused parts or gaps): as above

C#CC1=CCC(N(CCC)CCC)CC1 (stereo not drawn) [FAUC73, (4-ethynylcyclohex-3-enyl) dipropylamine]
specificity of agonist effect (eticlopride pretreatment / parental cells) [1]: specific for D3 receptors
D3 receptor tolerance and SRT properties (agonist-induced GIRK response) [2]: abolished the tolerance property; also recorded: abolished both tolerance and SRT properties; also recorded: do not show D3 receptor tolerance and SRT
D3 receptor tolerance and SRT properties (agonist-induced GIRK response) ([2]; listed as FAUC 73): completely abolished the receptors' tolerance and SRT properties

CCCN1CCO[C@@H]2c3cc(O)ccc3OC[C@H]21.Cl [PD128907, (4aR,10bR)-3,4-a,4,10b-tetrahydro-4-propyl-2H,5H-[1]benzopyrano-[4,3-b]-1,4-oxazin-9-ol hydrochloride]
D3 receptor tolerance and SRT properties (agonist-induced GIRK response) ([2]; hydrochloride): elicited tolerance and SRT; also recorded: induced enhanced tolerance; also recorded: induces severe tolerance and SRT
D3 receptor tolerance and SRT properties (agonist-induced GIRK response) ([2]; listed as PD 128907, hydrochloride): tolerance is elicited
dyskinesia induced by the compound itself, before levodopa administration [3]: in of itself induced dyskinesia; also recorded: increased AIMs score even before the levodopa was administered
Ki ([4]; D3, Scheideler et al., 1997, read-out: Ki): 0.4 nM
Ki ([4]; source not stated, read-out: D3 dopamine receptor binding affinity Ki): 2.3 nM
Ki [5]: 202 nM
Ki [6]: 114 nM
duration of hypoactivity post-injection ([7]; PBZI 10 mg/kg sc, PD128907 0.4 mg/kg sc): 40 min
duration of hypoactivity post-injection ([7]; PD128907 0.05 mg/kg sc): 20 min
time by which locomotor activity returns to control saline levels ([7]; post-injection, PBZI 10 mg/kg sc, PD128907 0.4 mg/kg sc): ≤ 120 min
dose at which biphasic locomotor effect was observed ([7]; sc): ≥ 0.05 mg/kg
locomotor response ([7]; sc, PBZI 10 mg/kg, PD128907 0.05-0.4 mg/kg, normalized to saline, hydrochloride): induces both hypoactivity and hyperactivity; also recorded: biphasic locomotor response; also recorded: biphasic effect; also recorded: an initial hypoactivity (horizontal arrows) that is followed by hyperactivity

N[C@@H](Cc1ccc(O)c(O)c1)C(=O)O [levodopa, L-3,4-dihydroxyphenylalanine]
forelimb bradykinesia (forelimb stepping test) [8]: dose dependent improvement in forelimb bradykinesia

Fc1ccc(-c2cncc(CNC[C@H]3CCc4ccccc4O3)c2)cc1 [sarizotan, 1-[(2R)-3,4-dihydro-2H-chromen-2-yl]-N-([5-(4-fluorophenyl)pyridin-3-yl]methyl)methanamine]
tolerance and SRT properties at D2S [9]: induces tolerance and slow response termination (SRT) properties
adenylyl cyclase pathway: agonist type [10]: full agonist
adenylyl cyclase pathway: agonist type [11]: full agonist
GIRK channel signaling pathway: agonist type [12]: partial agonist
GIRK channel signaling pathway: agonist type [13]: partial agonist
